# Assay results from patent US20250026769A1, “PAPD5 INHIBITORS AND METHODS OF USE THEREOF” (The Children's Medical Center Corporation, priority 2021, published 2025).
# Molecular target: T1, rPAPD5 (Homo sapiens, UniProt Q8NDF8)
# T1 construct: made in house
# Assay: differential scanning fluorimetry (DSF) binding and stabilization of rPAPD5
# Conditions: 10 μM test compound; shift vs DMSO control; read-out: ΔTm (Table 2, starred: the compound was tested at 10 μM)
# Method: Binding and stabilization of rPAPD5 by test compounds was determined using differential scanning fluorimetry (DSF). DSF assays were performed to determine protein melting temperature using an indicator dye SYPRO orange (Thermo Fisher Scientific, S6651) diluted 1:5000 in […] of buffer containing […], […] (Jena Biosciences), 25 mM Tris-HCl, 5 mM MgCl2, 50 mM KCl. […] DMSO was used as a negative control. Each curve was an average of three measurements and Thermal Shift software (Thermo Fisher Scientific, 4466038) was used for analysis. […] The change in melting temperature (ΔTm) is in reference to the DMSO control. Referring to Table 2, “+” refers to ΔTm values below 1° C., “++” refers to ΔTm values from 1 to 5° C., and “+++” refers to ΔTm values above 5° C.
# T1 sequence (Q8NDF8 68-698 isoform Q8NDF8-5 limits assumed): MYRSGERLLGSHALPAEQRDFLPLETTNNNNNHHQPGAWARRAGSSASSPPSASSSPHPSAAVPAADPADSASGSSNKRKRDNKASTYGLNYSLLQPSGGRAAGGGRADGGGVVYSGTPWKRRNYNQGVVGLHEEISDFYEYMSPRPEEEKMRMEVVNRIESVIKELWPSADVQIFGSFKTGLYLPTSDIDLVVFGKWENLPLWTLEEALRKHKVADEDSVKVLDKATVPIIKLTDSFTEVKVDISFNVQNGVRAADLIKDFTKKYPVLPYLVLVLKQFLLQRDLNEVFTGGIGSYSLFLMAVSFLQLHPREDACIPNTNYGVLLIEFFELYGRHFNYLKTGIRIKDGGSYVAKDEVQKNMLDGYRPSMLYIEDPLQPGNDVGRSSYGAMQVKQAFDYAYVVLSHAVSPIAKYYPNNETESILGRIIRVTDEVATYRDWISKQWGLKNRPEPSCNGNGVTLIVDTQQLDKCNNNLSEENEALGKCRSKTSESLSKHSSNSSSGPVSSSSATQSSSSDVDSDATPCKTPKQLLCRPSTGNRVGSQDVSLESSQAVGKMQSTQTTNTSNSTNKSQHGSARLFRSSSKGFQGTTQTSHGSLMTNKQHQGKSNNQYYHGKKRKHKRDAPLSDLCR
row,SMILES,ΔTm at 10 µM [°C]
1,O=C(O)c1ccccc1Nc1c(S(=O)(=O)N2CCN(C(=O)OCc3ccccc3)CC2)cnc2ccc(Cl)cc12 [Compound 123A-CBZ],> 5

# Same assay, conditions: 100 μM test compound; shift vs DMSO control; read-out: ΔTm at 100 μM
row,SMILES,ΔTm at 100 µM [°C]
1,"CCCc1ccc(Nc2c(S(=O)(=O)N3CCOCC3)cnc3ccc(Cl)cc23)c(C(=O)O)c1 [Compound 319A, 2-[(6-chloro-3-morpholinosulfonyl-4-quinolyl)amino]-5-propyl-benzoic acid]",1 to 5
2,"O=C(O)c1ccc(Cl)cc1Nc1c(S(=O)(=O)N2CCOCC2)cnc2ccc(Cl)cc12 [Compound 274A, 4-chloro-2-[(6-chloro-3-morpholinosulfonyl-4-quinolyl)amino]benzoic acid]",> 5
3,"O=C(O)c1ccccc1Nc1c(C2CCOCC2)cnc2c1CCCC2 [Compound 204A-BP, 2-[(3-tetrahydropyran-4-yl-5,6,7,8-tetrahydroquinolin-4-yl)amino]benzoic acid]",> 5
4,"O=C(O)c1ccccc1Nc1c(C2CCS(=O)(=O)CC2)c[n+]([O-])c2ccc(Cl)cc12 [Compound 323A, 2-[[6-chloro-3-(1,1-dioxothian-4-yl)-1-oxido-quinolin-1-ium-4-yl]amino]benzoic acid]",> 5
5,"O=C(O)c1ccc(F)cc1Nc1c(S(=O)(=O)N2CCOCC2)cnc2ccc(Cl)cc12 [Compound 275A, 2-[(6-chloro-3-morpholinosulfonyl-4-quinolyl)amino]-4-fluoro-benzoic acid]",> 5
6,O=C(O)c1ccccc1Nc1c(S(=O)(=O)N2CCOCC2)cnc2ccc(-c3sccc3Cl)cc12 [Compound 140A],1 to 5
7,"O=C(O)c1ccccc1Nc1c(S(=O)(=O)N2CCOCC2)cnc2ccc(-c3cnc4[nH]ncc4c3)cc12 [Compound 155A, 2-[[3-morpholinosulfonyl-6-(1H-pyrazolo[3,4-b]pyridin-5-yl)-4-quinolyl]amino]benzoic acid]",1 to 5
8,"O=C(O)c1ccc(Br)cc1Nc1c(S(=O)(=O)N2CCOCC2)cnc2ccc(Cl)cc12 [Compound 276A, 4-bromo-2-[(6-chloro-3-morpholinosulfonyl-4-quinolyl)amino]benzoic acid]",> 5
9,"O=C(O)c1ccccc1Nc1c(C2=CCS(=O)(=O)CC2)cnc2ccc(Cl)cc12 [Compound 208A-INT, 2-[[6-chloro-3-(1,1-dioxo-3,6-dihydro-2H-thiopyran-4-yl)-4-quinolyl]amino]benzoic acid]",1 to 5
10,"O=C(O)c1ccccc1Nc1c(S(=O)(=O)N2CCOCC2)cnc2ccc(N3CCOCC3)cc12 [Compound 248A, 2-[(6-morpholino-3-morpholinosulfonyl-4-quinolyl)amino]benzoic acid]",1 to 5
11,"CN1CC=C(c2cnc3ccc(Cl)cc3c2Nc2ccccc2C(=O)O)CC1 [Compound 207A-INT, 2-[[6-chloro-3-(1-methyl-3,6-dihydro-2H-pyridin-4-yl)-4-quinolyl]amino]benzoic acid]",> 5
12,"COc1cccc(C(=O)O)c1Nc1c(S(=O)(=O)N2CCOCC2)cnc2ccc(Cl)cc12 [Compound 284A, 2-[(6-chloro-3-morpholinosulfonyl-4-quinolyl)amino]-3-methoxy-benzoic acid]",1 to 5
13,"O=C(O)c1ccccc1Nc1c(-c2ccncc2)cnc2ccc(Cl)cc12 [Compound 209A, 2-[[6-chloro-3-(4-pyridyl)-4-quinolyl]amino]benzoic acid]",> 5
14,"O=C(O)c1ccccc1Nc1c(S(=O)(=O)N2CCOCC2)cnc2ccc(NC3CCNCC3)cc12 [Compound 239A, 2-[[3-morpholinosulfonyl-6-(4-piperidylamino)-4-quinolyl]amino]benzoic acid]",1 to 5
15,"COc1ccc(Nc2c(C3=CCOCC3)cnc3ccc(Cl)cc23)c(C(=O)O)c1 [Compound 308A, 2-[[6-chloro-3-(3,6-dihydro-2H-pyran-4-yl)-4-quinolyl]amino]-5-methoxy-benzoic acid]",> 5
16,"O=C(O)c1ccccc1Nc1c(S(=O)(=O)N2CCOCC2)cnc2ccc(OC(F)F)cc12 [Compound 236A, 2-[[6-(difluoromethoxy)-3-morpholinosulfonyl-4-quinolyl]amino]benzoic acid]",> 5
17,"O=C(O)c1ccccc1Nc1c(C2CCC(F)(F)CC2)cnc2ccc(Cl)cc12 [Compound 205A, 2-[[6-chloro-3-(4,4-difluorocyclohexyl)-4-quinolyl]amino]benzoic acid]",> 5
18,"N#Cc1ccc(Nc2c(S(=O)(=O)N3CCOCC3)cnc3ccc(Cl)cc23)c(C(=O)O)c1 [Compound 338A, 2-[(6-chloro-3-morpholinosulfonyl-4-quinolyl)amino]-5-cyano-benzoic acid]",> 5
19,"O=C(O)c1ccccc1Nc1c(S(=O)(=O)Nc2ccncc2)cnc2ccc(Cl)cc12 [Compound 221A, 2-[[6-chloro-3-(4-pyridylsulfamoyl)-4-quinolyl]amino]benzoic acid]",> 5
20,"O=C(O)c1ccccc1Nc1c(S(=O)(=O)N2CCOCC2)cnc2ccc(-c3cncnc3)cc12 [Compound 154A, 2-[(3-morpholinosulfonyl-6-pyrimidin-5-yl-4-quinolyl)amino]benzoic acid]",> 5

row,SMILES,ΔTm at 100 µM [°C]
1,"O=C(O)c1ccccc1Nc1c(S(=O)(=O)N2CCOCC2)cnc2ccc(B(O)O)cc12 [Compound 321A, 2-[(6-borono-3-morpholinosulfonyl-4-quinolyl)amino]benzoic acid]",< 1
2,"O=C(O)c1ccccc1Nc1c(Nc2cncnc2)cnc2ccc(Cl)cc12 [Compound 191A, 2-[[6-chloro-3-(pyrimidin-5-ylamino)-4-quinolyl]amino]benzoic acid]",> 5
3,"CN1CCC(NS(=O)(=O)c2cnc3ccc(Cl)cc3c2Nc2ccccc2C(=O)O)CC1 [Compound 219A, 2-[[6-chloro-3-[(1-methyl-4-piperidyl)sulfamoyl]-4-quinolyl]amino]benzoic acid]",1 to 5
4,"O=C(O)c1ccccc1Nc1c(S(=O)(=O)N2CCOCC2)cnc2ccc(NC3CCOCC3)cc12 [Compound 237A, 2-[[3-morpholinosulfonyl-6-(tetrahydropyran-4-ylamino)-4-quinolyl]amino]benzoic acid]",< 1
5,"O=C(O)c1ccccc1Nc1c(S(=O)(=O)N2CCOCC2)cnc2ccc(Nc3ncco3)cc12 [Compound 241A, 2-[[3-morpholinosulfonyl-6-(oxazol-2-ylamino)-4-quinolyl]amino]benzoic acid]",> 5
6,O=C(O)c1ccccc1Nc1c(-c2cnco2)cnc2ccc(Cl)cc12 [Compound 134A],> 5
7,O=C(O)c1ccccc1Nc1c(S(=O)(=O)N2CCOCC2)cnc2ccc(-c3cnn4cccnc34)cc12 [Compound 149A],1 to 5
8,"O=C(O)c1ccccc1Nc1c(S(=O)(=O)N2CCOCC2)cnc2ccc(-c3ccc(-n4cccn4)cc3)cc12 [Compound 178A, 2-[[3-morpholinosulfonyl-6-(4-pyrazol-1-ylphenyl)-4-quinolyl]amino]benzoic acid]",1 to 5
9,"O=C(O)c1cc(C(F)(F)F)ccc1Nc1c(S(=O)(=O)N2CCOCC2)cnc2ccc(Cl)cc12 [Compound 271A, 2-[(6-chloro-3-morpholinosulfonyl-4-quinolyl)amino]-5-(trifluoromethyl)benzoic acid]",1 to 5
10,O=C(O)c1ccccc1Nc1c(S(=O)(=O)N2CCNCC2)cnc2ccc(Cl)cc12 [Compound 123A],> 5
11,O=C(O)c1c(Br)cccc1Nc1c(S(=O)(=O)N2CCOCC2)cnc2ccc(Cl)cc12 [Compound 128A-BR],< 1
12,"O=C(O)c1ccccc1Nc1c(S(=O)(=O)N2CCOCC2)cnc2ccc(-c3cncc(C4CC4)c3)cc12 [Compound 153A, 2-[[6-(5-cyclopropyl-3-pyridyl)-3-morpholinosulfonyl-4-quinolyl]amino]benzoic acid]",1 to 5
13,"O=C(O)c1ccccc1Nc1c(S(=O)(=O)N2CCOCC2)cnc2ccc(Nc3ccncc3)cc12 [Compound 240A, 2-[[3-morpholinosulfonyl-6-(4-pyridylamino)-4-quinolyl]amino]benzoic acid]",1 to 5
14,"O=C(O)c1cccc(O)c1Nc1c(S(=O)(=O)N2CCOCC2)cnc2ccc(Cl)cc12 [Compound 279A, 2-[(6-chloro-3-morpholinosulfonyl-4-quinolyl)amino]-3-hydroxy-benzoic acid]",1 to 5
15,"O=C1Cc2ccc(-c3ccc4ncc(S(=O)(=O)N5CCOCC5)c(Nc5ccccc5C(=O)O)c4c3)cc2N1 [Compound 170A, 2-[[3-morpholinosulfonyl-6-(2-oxoindolin-6-yl)-4-quinolyl]amino]benzoic acid]",1 to 5
16,"CN1CCN(c2ccc(-c3ccc4ncc(S(=O)(=O)N5CCOCC5)c(Nc5ccccc5C(=O)O)c4c3)cn2)CC1 [Compound 165A, 2-[[6-[6-(4-methylpiperazin-1-yl)-3-pyridyl]-3-morpholinosulfonyl-4-quinolyl]amino]benzoic acid]",1 to 5
17,"NS(=O)(=O)c1ccc2ncc(S(=O)(=O)N3CCOCC3)c(Nc3ccccc3C(=O)O)c2c1 [Compound 249A, 2-[(3-morpholinosulfonyl-6-sulfamoyl-4-quinolyl)amino]benzoic acid]",> 5
18,"COc1ccc(Nc2c(-c3ncco3)cnc3ccc(Cl)cc23)c(C(=O)O)c1 [Compound 302A, 2-[(6-chloro-3-oxazol-2-yl-4-quinolyl)amino]-5-methoxy-benzoic acid]",> 5
19,"CN1CCN(c2ccc(-c3ccc4ncc(S(=O)(=O)N5CCOCC5)c(Nc5ccccc5C(=O)O)c4c3)cc2)CC1 [Compound 180A, 2-[[6-[4-(4-methylpiperazin-1-yl)phenyl]-3-morpholinosulfonyl-4-quinolyl]amino]benzoic acid]",< 1
